Where two headings read alike, the source gives them in different places.
Experiments:
[1] = target: T1, cytoplasmic domain of the human CSF-1R (Homo sapiens, UniProt P07333); assay: In vitro kinase assay for colony stimulating factor-1 receptor (AlphaScreen); type: biochemical; details: read-out: CSF-1R percent inhibition
T1 construct: Recombinant protein corresponding to the cytoplasmic domain of the human CSF-1R; purchased Invitrogen Corporation, Carlsbad, Calif; PV3249
T1 sequence (P07333 539-972 limits assumed): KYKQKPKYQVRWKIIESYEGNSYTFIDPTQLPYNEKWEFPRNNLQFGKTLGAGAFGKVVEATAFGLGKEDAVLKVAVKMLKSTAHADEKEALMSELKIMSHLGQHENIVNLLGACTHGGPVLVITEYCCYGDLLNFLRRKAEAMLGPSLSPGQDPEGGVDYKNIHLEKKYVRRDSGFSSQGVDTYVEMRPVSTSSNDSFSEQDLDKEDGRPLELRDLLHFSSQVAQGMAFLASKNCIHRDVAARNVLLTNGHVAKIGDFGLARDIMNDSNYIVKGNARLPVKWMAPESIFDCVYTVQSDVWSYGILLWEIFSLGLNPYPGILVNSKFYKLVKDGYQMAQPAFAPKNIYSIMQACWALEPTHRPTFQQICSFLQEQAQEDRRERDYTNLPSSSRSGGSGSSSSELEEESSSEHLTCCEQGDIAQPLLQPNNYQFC
Outline: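 Test compounds, serially diluted threefold starting at 25 μM, were mixed with Hepes buffer (pH 7.5, Mg2+/Mn2+, DTT, BSA, Tween 80) containing 1 μM ATP. Recombinant kinase was present at 4 nM. After stopping, beads were added and plates were read the next day by AlphaScreen.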

[2] = target: T2, full-length human CSF-1R receptor (Homo sapiens, UniProt P07333); assay: In vitro inhibition of CSF-1R receptor tyrosine phosphorylation in transfected HEK293H cells stimulated with MCSF; type: cell-based; details: HEK293-H, read-out: pCSF1R percent inhibition
T2 construct: transfected with the full-length human CSF-1R receptor cloned in house; expressed in transfected cells; host or cells: HEK293H (Invitrogen Cat. #11631017)
T2 sequence (P07333 20-972): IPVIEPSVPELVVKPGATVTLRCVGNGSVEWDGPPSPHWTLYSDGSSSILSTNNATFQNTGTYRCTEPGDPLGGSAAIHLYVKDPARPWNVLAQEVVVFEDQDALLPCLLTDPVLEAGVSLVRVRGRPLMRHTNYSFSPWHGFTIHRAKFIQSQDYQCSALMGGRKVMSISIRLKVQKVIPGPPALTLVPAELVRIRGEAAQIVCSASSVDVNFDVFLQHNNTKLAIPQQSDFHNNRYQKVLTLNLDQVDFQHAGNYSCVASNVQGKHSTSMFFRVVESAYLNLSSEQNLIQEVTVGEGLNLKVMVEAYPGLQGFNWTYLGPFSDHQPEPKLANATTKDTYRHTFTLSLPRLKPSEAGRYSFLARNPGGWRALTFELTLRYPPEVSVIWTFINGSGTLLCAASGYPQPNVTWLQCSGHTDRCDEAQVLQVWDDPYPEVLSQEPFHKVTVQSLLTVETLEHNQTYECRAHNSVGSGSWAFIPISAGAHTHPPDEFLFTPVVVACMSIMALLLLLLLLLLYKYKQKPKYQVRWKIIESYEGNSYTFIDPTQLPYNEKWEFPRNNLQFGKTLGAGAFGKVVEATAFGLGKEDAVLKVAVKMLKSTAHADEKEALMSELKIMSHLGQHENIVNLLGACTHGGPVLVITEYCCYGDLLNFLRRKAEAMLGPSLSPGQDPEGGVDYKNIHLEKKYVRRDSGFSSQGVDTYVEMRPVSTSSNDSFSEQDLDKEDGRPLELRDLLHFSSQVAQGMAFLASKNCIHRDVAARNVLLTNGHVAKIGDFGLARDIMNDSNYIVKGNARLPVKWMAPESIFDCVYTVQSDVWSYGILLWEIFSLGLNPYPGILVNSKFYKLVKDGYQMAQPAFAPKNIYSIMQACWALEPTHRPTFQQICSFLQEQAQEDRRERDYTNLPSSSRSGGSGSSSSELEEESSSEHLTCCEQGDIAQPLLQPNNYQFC
Description: The lysate was then transferred to total CSF-1R antibody coated 96-well plates that had already been blocked with 3% Blocker A from Mesoscale discovery (MSD) for 2 hours and washed afterwards. Lysates were incubated overnight at 4° C. and the plates were then washed 4× with MSD Tris Wash Buffer. […] The plates were read on the Sector 6000 instrument (MSD). Raw data was imported in Abase and EC50s calculated with XL-fit data analysis software.

kinase domain of cKIT = target: T3, kinase domain of cKIT (Homo sapiens, UniProt P10721); assay: Inhibition of cKIT kinase signaling in an in vitro biochemical assay (alphascreen); details: tested at about 1 μM, read-out: cKit percent inhibition
T3 construct: The kinase domain of cKIT was assayed in 50 mM Hepes; purchased Upstate 14-559
T3 sequence (P10721 589-937 limits assumed): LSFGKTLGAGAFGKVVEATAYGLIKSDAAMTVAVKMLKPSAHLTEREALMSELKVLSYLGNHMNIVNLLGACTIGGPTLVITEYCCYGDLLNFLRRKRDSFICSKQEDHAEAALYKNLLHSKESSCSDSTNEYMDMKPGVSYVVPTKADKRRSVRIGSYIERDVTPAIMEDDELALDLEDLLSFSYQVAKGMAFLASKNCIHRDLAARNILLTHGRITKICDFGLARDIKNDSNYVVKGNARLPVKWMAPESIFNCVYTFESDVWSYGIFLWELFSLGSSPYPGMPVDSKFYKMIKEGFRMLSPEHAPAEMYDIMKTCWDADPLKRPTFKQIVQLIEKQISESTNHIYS

kinase domain of PDGFRβ = target: T4, kinase domain of PDGFRβ (Homo sapiens, UniProt P09619); assay: Inhibition of PDGFRb kinase signaling in an in vitro biochemical assay (alphascreen); details: tested at about 1 μM, read-out: PDGFRβ percent inhibition
T4 construct: The kinase domain of PDGFRβ was assayed in 50 mM Hepes; purchased Invitrogen P3082
T4 sequence (P09619 600-962 limits assumed): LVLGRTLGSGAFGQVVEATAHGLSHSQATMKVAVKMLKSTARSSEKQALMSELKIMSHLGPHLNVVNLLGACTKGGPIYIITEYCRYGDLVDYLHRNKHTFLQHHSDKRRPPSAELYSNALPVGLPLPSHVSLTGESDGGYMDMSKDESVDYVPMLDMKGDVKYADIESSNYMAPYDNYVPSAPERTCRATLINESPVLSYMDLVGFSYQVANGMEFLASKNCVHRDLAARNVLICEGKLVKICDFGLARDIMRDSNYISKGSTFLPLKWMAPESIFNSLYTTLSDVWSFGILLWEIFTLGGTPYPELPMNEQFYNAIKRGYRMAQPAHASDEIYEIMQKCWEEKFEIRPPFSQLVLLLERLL

[3] = tested on: MNFS60 (murine AML cells); assay: Cell viability assay in MCSF dependent MNFS60 cells (Cell Titer Glo); type: cell-based; details: Mus musculus, read-out: M-NFS-60 CP percent inhibition
Outline: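 Viability was read by Cell Titer Glo after 72 hrs at 37° C., 5% CO2, with triplicate conditions. Compounds were titrated 3-fold into MNFS60 cultures whose final MCSF level was 10 ng/ml. EC50 values came from curve fitting.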

[4] = tested at about 1 μM, HEK293H cells
[5] = tested at about 1 μM, MCSF dependent MNFS60 cells
[6] = tested at about 1 μM, MNFS60 cells
[7] = tested at about 1 μM, compounds of Table 3
[8] = tested at about 1 μM, compounds of Table 4

inhibition at 1 µM ([1]; tested at about 1 μM) [%] | inhibition at 1 µM [2, 4] [%] | inhibition at 1 µM (kinase domain of cKIT) [%] | inhibition at 1 µM (kinase domain of PDGFRβ) [%] | inhibition at 1 µM [1, 7] [%] | inhibition at 1 µM [2, 7] [%] | inhibition at 1 µM (kinase domain of cKIT; compounds of Table 3) [%] | inhibition at 1 µM (kinase domain of PDGFRβ; compounds of Table 3) [%] | SMILES | inhibition at 1 µM [3, 7] [%] | also measured
100 | 97 | 45 | 74 |  |  |  |  | CC(C)[C@@H](CO)Nc1nc2ccc(Oc3ccnc(-c4cnn(C)c4)c3)cc2s1 [Example 352, (S)-3-methyl-2-(6-(2-(1-methyl-1H-pyrazol-4-yl)pyridin-4-yloxy)benzo[d]thiazol-2-ylamino)butan-1-ol] |  | inhibition at 1 µM [3, 5]: 100%
100 | 95 | 90 | 83 |  |  |  |  | CNC(=O)c1cc(Oc2ccc3nc(NCC4CCCCC4)sc3c2)ccn1 [Compound 128, 4-[2-(Cyclohexylmethyl-amino)-benzothiazol-6-yloxy]-pyridine-2-carboxylic acid methylamide] |  | inhibition at 1 µM [3, 6]: 95%
13 |  |  | 12 | 100 | 83 | 0 | 4 | CNC(=O)c1cc(Oc2ccc3nc(Nc4ccccc4-n4ccnc4C)oc3c2)ccn1 [Compound 47, 4-{2-[2-(2-Methyl-imidazol-1-yl)-phenylamino]-benzooxazol-6-yloxy}-pyridine-2-carboxylic acid methylamide] | 55 | inhibition at 1 µM [1, 8]: 100%; inhibition at 1 µM [2, 8]: 79%; inhibition at 1 µM (kinase domain of cKIT; compounds of Table 4): 55%; inhibition at 1 µM (kinase domain of PDGFRβ; compounds of Table 4): 31%; inhibition at 1 µM [3, 8]: 58%
 |  |  |  | 100 | 98 | 83 | 83 | O[C@@H]1CCCC[C@H]1Nc1nc2ccc(Oc3ccnc(-c4ccc(N5CCOCC5)nc4)c3)cc2s1 [Cmpd 165, (1R,2R)-2-(6-(6'-morpholino-2,3'-bipyridin-4-yloxy)benzo[d]thiazol-2-ylamino)cyclohexanol] | 100 | 
 |  |  |  | 100 | 99 | 40 | 43 | O[C@@H]1CCCC[C@H]1Nc1nc2ccc(Oc3ccnc(-c4ccc(CN5CCOCC5)cc4)c3)cc2s1 [Cmpd 168, (1R,2R)-2-(6-(2-(4-(morpholinomethyl)phenyl)pyridin-4-yloxy)benzo[d]thiazol-2-ylamino)cyclohexanol] | 100 | 
 |  |  |  | 100 | 99 | 44 | 62 | O[C@@H]1CCCC[C@H]1Nc1nc2ccc(Oc3ccnc(-c4nc5c([nH]4)CCCC5)c3)cc2s1 [Example 258, (1R,2R)-2-(6-(2-(4,5,6,7-tetrahydro-1H-benzo[d]imidazol-2-yl)pyridin-4-yloxy)benzo[d]thiazol-2-ylamino)cyclohexanol] | 100 | 
56 |  | 59 | 8 | 99 |  | 13 | 14 | CNC(=O)c1cc(Oc2ccc3nc(N[C@@H]4c5ccccc5C[C@@H]4O)oc3c2)ccn1 [Compound 50, 4-[2-((1R,2S)-2-Hydroxy-indan-1-ylamino)-benzooxazol-6-yloxy]-pyridine-2-carboxylic acid methylamide] | 18 | inhibition at 1 µM [1, 8]: 100%; inhibition at 1 µM [2, 8]: 99%; inhibition at 1 µM (kinase domain of cKIT; compounds of Table 4): 10%; inhibition at 1 µM (kinase domain of PDGFRβ; compounds of Table 4): 14%; inhibition at 1 µM [3, 8]: 100%
 |  |  |  | 100 | 88 | 24 | 19 | CNC(=O)c1cc(Oc2ccc3nc(NCc4ccncc4)sc3c2)ccn1 [Compound 139] | 46 | 
 |  |  |  | 100 | 71 | 21 | 16 | OC[C@H](Nc1nc2ccc(Oc3ccnc4ccccc34)cc2s1)C1CCCCC1 [Example 240, (R)-2-cyclohexyl-2-(6-(quinolin-4-yloxy)benzo[d]thiazol-2-ylamino)ethanol] | 66 | 
100 | 78 | 47 | 13 |  |  |  |  | CNC(=O)c1cc(Oc2ccc3nc(N[C@H]4C[C@H]4c4ccccc4)sc3c2)ccn1 [Example 318, N-methyl-4-(2-((1S,2S)-2-phenylcyclopropylamino)benzo[d]thiazol-6-yloxy)picolinamide] |  | inhibition at 1 µM [3, 5]: 24%
99 | 50 | 41 | 8 |  |  |  |  | CNC(=O)c1cc(Oc2ccc3nc(N[C@H]4CCCC[C@@H]4NS(C)(=O)=O)sc3c2)ccn1 [Example 330, N-mehtyl-4-(2-((1S,2S)-2-(methylsulfonamido)cyclo-hexylamino)benzo[d]thiazol-6-yloxy)picolinamide] |  | inhibition at 1 µM [3, 5]: 58%
 |  |  |  | 100 | 100 | 79 | 87 | CN1CCN(c2ccc(-c3cc(Oc4ccc5nc(N[C@@H]6CCCC[C@H]6O)sc5c4)ccn3)cn2)CC1 [Cmpd 164, (1R,2R)-2-(6-(6'-(4-methylpiperazin-1-yl)-2,3'-bipyridin-4-yloxy)benzo[d]thiazol-2-ylamino)cyclohexanol] | 100 | 
100 | 71 | 20 | 15 |  |  |  |  | CNC(=O)c1cc(Oc2ccc3nc(N[C@H]4CCCN(C(=O)C(C)C)C4)sc3c2)ccn1 [Example 334, (S)-4-(2-(1-isobutyrylpiperidin-3-ylamino)benzo[d]thiazol-6-yloxy)-N-methylpicolinamide] |  | inhibition at 1 µM [3, 5]: 67%
 |  |  |  | 100 | 92 | 21 | 30 | O[C@@H]1CCCC[C@H]1Nc1nc2ccc(Oc3ccnc4cc(F)ccc34)cc2s1 [Example 229, (1R,2R)-2-(6-(7-fluoroquinolin-4-yloxy)benzo[d]thiazol-2-ylamino)cyclohexanol] | 80 | 
98 | 83 |  | 35 |  |  |  |  | CNC(=O)c1cc(Oc2ccc3nc(NCc4cc(F)ccc4F)oc3c2)ccn1 [Compound 33, 4-[2-(2,5-Difluoro-benzylamino)-benzooxazol-6-yloxy]-pyridine-2-carboxylic acid methylamide] |  | inhibition at 1 µM [1, 8]: 100%; inhibition at 1 µM [2, 8]: 98%; inhibition at 1 µM (kinase domain of cKIT; compounds of Table 4): 65%; inhibition at 1 µM (kinase domain of PDGFRβ; compounds of Table 4): 0%; inhibition at 1 µM [3, 6]: 35%; inhibition at 1 µM [3, 8]: 100%
99 | 98 | 99 | 100 |  |  |  |  | CNC(=O)c1cc(Oc2ccc3nc(NCC4CCCCCC4)sc3c2)ccn1 [Compound 148, 4-[2-(Cycloheptylmethyl-amino)-benzothiazol-6-yloxy]-pyridine-2-carboxylic acid methylamide] |  | inhibition at 1 µM [3, 6]: 100%

SMILES | inhibition at 1 µM ([1]; tested at about 1 μM) [%] | inhibition at 1 µM [2, 4] [%] | inhibition at 1 µM (kinase domain of cKIT) [%] | inhibition at 1 µM (kinase domain of PDGFRβ) [%] | inhibition at 1 µM [1, 7] [%] | inhibition at 1 µM [2, 7] [%] | inhibition at 1 µM (kinase domain of cKIT; compounds of Table 3) [%] | inhibition at 1 µM (kinase domain of PDGFRβ; compounds of Table 3) [%] | inhibition at 1 µM [3, 7] [%] | also measured
Cn1cc(-c2cc(Oc3ccc4nc(N[C@@H]5CCCC[C@H]5O)sc4c3)ccn2)cn1 [Example 344, (1R,2R)-2-(6-(2-(1-methyl-1H-pyrazol-4-yl)pyridin-4-yloxy)benzo[d]thiazol-2-ylamino)cyclohexanol] |  |  | 45 | 65 |  |  |  |  |  | inhibition at 1 µM [1]: 100%; inhibition at 1 µM [2]: 95%; inhibition at 1 µM [3]: 100%
